Data on 32 molecules can be found in patent US6967196B1, “Sulfonamide compounds and uses thereof” (Bristol-Myers Squibb Company, priority 1999, dated 2005).

Structures can show the parent of a compound that is named as a salt.

One test deals with amyloid β production in transfected H4 (human neuroglioma) cells stably expressing APP constructs. Nature of the test: In vitro cell-based assay of inhibitors of amyloid β production (ELISA). The conditions noted are these: Homo sapiens, 16 h, transfected H4 cells stably expressing APP; approx. 16 h incubation; amyloid β in medium by ELISA; read-out: ACTIVITY (IC50, inhibition of amyloid β production). A digest of the protocol: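 Plate wt/variant APP cells; ≥6 h later swap to medium + compound (10-100 μM screen); incubate ~16 h; sample medium; Aβ ELISA with C-terminal capture / N-terminal detection Abs; quantify vs Aβ standard curve.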
In general terms: An ELISA detects its analyte on a solid surface through an enzyme-linked reagent.
The IC50 is the midpoint of a concentration-inhibition curve. Turning to `O=S(=O)(c1ccc(Cl)cc1)N(Cc1ccccc1OCCCN1CCC(O)CC1)c1ccccc1` [Example 645, 4-chloro-N-{2-[3-(4-hydroxy-1-piperidinyl)propoxy]benzyl}-N-phenylbenzenesulfonamide hydrochloride], the IC50 lay within 100 to 500 nM.
Same read-out and setting: then `CCOc1ccc(C(=O)N2CCCCC2CCOc2ccccc2CN(c2cc(F)ccc2F)S(=O)(=O)c2ccc(Cl)cc2)cc1` (centres unmarked) [Example 648, 4-chloro-N-(2,5-difluorophenyl)-N-{2-[2-[1-(4-ethoxybenzoyl)-2-piperidinyl]ethoxy}benzyl)benzenesulfonamide], with 100 to 500 nM.
On the same count and under the same terms, to `O=C(c1cccc(F)c1)N1CCCCC1CCOc1ccccc1CN(c1cc(F)ccc1F)S(=O)(=O)c1ccc(Cl)cc1` (centres unmarked) [Example 661, 4-chloro-N-(2,5-difluorophenyl)-N-(2-{2-[1-(3-fluorobenzoyl)-2-piperidinyl]ethoxy}benzyl)benzenesulfonamide] belongs 100 to 500 nM.
The same measure, in the same setting: then `O=S(=O)(c1ccc(Cl)cc1)N(Cc1ccccc1OCCCN1CCCCC1)c1cccc(Cl)c1` [Example 663, 4-chloro-N-(3-chlorophenyl)-N-{2-[3-(1-piperidinyl)propoxy]benzyl}benzenesulfonamide hydrochloride], with 100 to 500 nM.

Staying with this test, now noted: Homo sapiens, 16 h, transfected H4 cells stably expressing APP; approximately 16 hours incubation; amyloid β in medium by ELISA; Table B; read-out: ACTIVITY (IC50, inhibition of amyloid β production).
`O=S1(=O)CCN(CCCOc2ccccc2CN(c2ccccc2)S(=O)(=O)c2ccc(Cl)cc2)CC1` [Example 492, 4-chloro-N-{2-[3-(1,1-dioxido-4-thiomorpholinyl)propoxy]benzyl}-N-phenylbenzenesulfonamide hydrochloride]: the IC50 lay within 100 to 500 nM.

The test is the same for the next values; noted with them: transfected H4 cells stably expressing APP; approx. 16 h incubation; amyloid β in medium by ELISA; read-out: ACTIVITY (IC50, inhibition of amyloid β production).
With `COC(=O)[C@H](CC(C)C)NC(=O)CCC[C@@H](C)N(c1cc(Cl)ccc1F)S(=O)(=O)c1ccc(Cl)cc1` [Example 541], the IC50 lay in the range of 100 to 500 nM.
On the same count and under the same terms, then `COC(=O)[C@@H](NC(=O)CCCC[C@@H](C)N(c1cc(Cl)ccc1F)S(=O)(=O)c1ccc(Cl)cc1)C(C)C` [Example 542, (R)-4-Chloro-N-(5-chloro-2-fluorophenyl)-N-[6-[N-(S)-[1-(methoxycarbonyl)-2-methylpropyl]amino]-1-methyl-6-oxohexyl]benzenesulfonamide], with 100 to 500 nM; and `COC(=O)[C@H](CC(C)C)NC(=O)CCCC[C@@H](C)N(c1cc(Cl)ccc1F)S(=O)(=O)c1ccc(Cl)cc1` [Example 543, (R)-4-Chloro-N-(5-chloro-2-fluorophenyl)-N-[6-[N-(S)-[1-(methoxycarbonyl)-3-methylbutyl]amino]-1-methyl-6-oxohexyl]benzenesulfonamide], with 100 to 500 nM.
Same read-out and setting: to `CC(C)[C@@H](NC(=O)CCC[C@@H](C)N(c1cc(Cl)ccc1F)S(=O)(=O)c1ccc(Cl)cc1)C(=O)O` [Example 544, (R)-4-Chloro-N-(5-chloro-2-fluorophenyl)-N-[5-[N-(R)-[1-(carboxy)-2-methylpropyl]amino]-1-methyl-5-oxopentyl]benzenesulfonamide] belongs 100 to 500 nM; to `CC(C)C[C@H](NC(=O)CCC[C@@H](C)N(c1cc(Cl)ccc1F)S(=O)(=O)c1ccc(Cl)cc1)C(=O)O` [Example 546, (R)-4-Chloro-N-(5-chloro-2-fluorophenyl)-N-[5-[N-(S)-[1-(carboxy)-3-methylbutyl]amino]-1-methyl-5-oxopentyl]benzenesulfonamide], 100 to 500 nM.
Still for that read-out and setting: to `CC(C)[C@H](NC(=O)CCCC[C@@H](C)N(c1cc(Cl)ccc1F)S(=O)(=O)c1ccc(Cl)cc1)C(=O)O` [Example 547, (R)-4-Chloro-N-(5-chloro-2-fluorophenyl)-N-[6-[N-(S)-[1-(carboxy)-2-methylpropyl]amino]-1-methyl-6-oxohexyl]benzenesulfonamide] belongs 100 to 500 nM; to `CC(C)C[C@H](NC(=O)CCCC[C@@H](C)N(c1cc(Cl)ccc1F)S(=O)(=O)c1ccc(Cl)cc1)C(=O)O` [Example 548, (R)-4-Chloro-N-(5-chloro-2-fluorophenyl)-N-[6-[N-(S)-[1-(carboxy)-3-methylbutyl]amino]-1-methyl-6-oxohexyl]benzenesulfonamide], 100 to 500 nM.
Consider `C[C@H](C(=O)NCc1ccccn1)N(c1cc(Cl)ccc1F)S(=O)(=O)c1ccc(Cl)cc1` [Example 610], for which the IC50 is 100 to 500 nM.
Same read-out and setting: to `C[C@H](C(=O)N[C@@H]1CC2CCC1C2)N(c1cc(Cl)ccc1F)S(=O)(=O)c1ccc(Cl)cc1` (some centres unmarked) [Example 627] belongs 100 to 500 nM; to `CC(c1ccccc1OCCCN(C)C(=O)c1ccccc1I)N(c1cc(F)ccc1F)S(=O)(=O)c1ccc(Cl)cc1` (centres unmarked) [Example 637], 100 to 500 nM.
The same measure, in the same setting: to `CN(CCCOc1ccccc1CN(c1cc(F)ccc1F)S(=O)(=O)c1ccc(Cl)cc1)C(=O)CCCCC1SCC2NC(=O)NC21` (centres unmarked) [Example 666, N-{3-[2-({[(4-chlorophenyl)sulfonyl]-2,5-difluoroanilino}methyl)phenoxy]propyl}-N-methyl-5-(2-oxohexahydro-1H-thieno[3,4-d]imidazol-4-yl)pentamide] belongs 100 to 500 nM.

Still in this test, the particulars now being: transfected H4 cells stably expressing APP; approximately 16 hours incubation; amyloid β in medium by ELISA; Table B; read-out: ACTIVITY (IC50, inhibition of amyloid β production).
In the case of `COC(=O)CS(=O)(=O)CCc1cc(F)ccc1[C@@H](C)N(c1cc(F)ccc1F)S(=O)(=O)c1ccc(Cl)cc1` [Example 478, Methyl ({2-[2-((1R)-1-{[(4-chlorophenyl)sulfonyl]-2,5-difluoroanilino}ethyl)-5-fluorophenyl]ethyl}sulfonyl)acetate], the IC50 is 100 to 500 nM.
On to `COC(=O)[C@H](CSCCCc1cc(F)ccc1[C@@H](C)N(c1cc(F)ccc1F)S(=O)(=O)c1ccc(Cl)cc1)NC(=O)OC(C)(C)C` [Example 485], for which the IC50 was in the range of 100 to 500 nM.
`COC(=O)[C@H](CS(=O)(=O)CCCc1cc(F)ccc1[C@@H](C)N(c1cc(F)ccc1F)S(=O)(=O)c1ccc(Cl)cc1)NC(=O)OC(C)(C)C` [Example 486]: the IC50 was in the range of 100 to 500 nM.
Same read-out and setting: to `COC(=O)[C@@H](N)CS(=O)(=O)CCCc1cc(F)ccc1[C@@H](C)N(c1cc(F)ccc1F)S(=O)(=O)c1ccc(Cl)cc1` [Example 487, Methyl (2R)-2-amino-3-({3-[2-((1R)-1-{[(4-chlorophenyl)sulfonyl]-2,5-difluoroanilino}ethyl)-5-fluorophenyl]propyl}sulfonyl)propanoate Hydrochloride] belongs 100 to 500 nM; to `C[C@H](c1ccc(F)cc1CCCC(=O)O)N(c1cc(F)ccc1F)S(=O)(=O)c1ccc(Cl)cc1` [Example 494, 4-[2-((1R)-1-{[(4-chlorophenyl)sulfonyl]-2,5-difluoroanilino}ethyl) 5-fluorophenyl]butanoic Acid], 100 to 500 nM; to `C[C@H](c1ccc(F)cc1CCCC(=O)NC1CCCCC1)N(c1cc(F)ccc1F)S(=O)(=O)c1ccc(Cl)cc1` [Example 496, 4-[2-((1R)-1-{[(4-chlorophenyl)sulfonyl]-2,5-difluoroanilino}ethyl)-5-fluorophenyl]-N-cyclohexylbutanamide], 100 to 500 nM.
On the same count and under the same terms, then `CNC(=O)CCCc1cc(F)ccc1[C@@H](C)N(c1cc(F)ccc1F)S(=O)(=O)c1ccc(Cl)cc1` [Example 498, 4-[2-((1R)-1-{[(4-chlorophenyl)sulfonyl]-2,5-difluoroanilino}ethyl)-5-fluorophenyl]-N-methylbutanamide], with 100 to 500 nM.
Still for that read-out and setting: to `CCCN(CCC)C(=O)CCCc1cc(F)ccc1[C@@H](C)N(c1cc(F)ccc1F)S(=O)(=O)c1ccc(Cl)cc1` [Example 500, 4-[2-((1R)-1-{[(4-chlorophenyl)sulfonyl]-2,5-difluoroanilino}ethyl)-5-fluorophenyl]-N,N-dipropylbutanamide] belongs 100 to 500 nM; to `O=S(=O)(c1ccc(Cl)cc1)N(Cc1ccccc1OCCC[N+]1([O-])CCCCC1)c1ccccc1` [Example 505, 4-Chloro-N-{2-[3-(1-hydroxy-1˜lambda˜5˜piperidin-1-yl)propoxy]benzyl}-N-phenylbenzenesulfonamide], 100 to 500 nM; to `O=S(=O)(c1ccc(Cl)cc1)N(Cc1ccccc1OCCC[N+]1([O-])CCCCC1)c1cc(Cl)ccc1Cl` [Example 506], 100 to 500 nM.
Take `O=S(=O)(c1ccc(Cl)cc1)N(Cc1ccccc1OCCC[N+]1([O-])CCCC1)c1cc(F)ccc1F` [Example 507]: the IC50 is 100 to 500 nM.
The same measure, in the same setting: then `C[N+]1(CCCOc2ccccc2CN(c2cc(Cl)ccc2Cl)S(=O)(=O)c2ccc(Cl)cc2)CCCCC1` [Example 513, 1-{3-[2-({2,5-dichloro[(4-chlorophenyl)sulfonyl]anilino}methyl)phenoxy]propyl}-1-methylpiperidinium Iodide], with 100 to 500 nM; and `C[C@H](COC(=O)NCCCn1ccnc1)N(c1cc(F)ccc1F)S(=O)(=O)c1ccc(Cl)cc1` [Example 517, 4-Chloro-N-(2,5-difluorophenyl)-N-[2-[[N′-[3-(1 h-imidazol-1-yl)propylamino]carbonyl]oxy]-(r)-1-methylethyl]benzenesulfonamide], with 100 to 500 nM; and `CC(C)[C@H](NC(=O)CCC[C@@H](C)N(c1cc(Cl)ccc1F)S(=O)(=O)c1ccc(Cl)cc1)C(=O)O` [Example 536, (R)-4-Chloro-N-(5-chloro-2-fluorophenyl)-N-[5-[N-(S)-[1-(carboxy)-2-methylpropyl]amino]-1-methyl-5-oxopentyl]benzenesulfonamide], with 100 to 500 nM.
On the same count and under the same terms, then `COC(=O)[C@@H](NC(=O)CC[C@@H](C)N(c1cc(Cl)ccc1F)S(=O)(=O)c1ccc(Cl)cc1)C(C)C` [Example 537, (R)-4-Chloro-N-(5-chloro-2-fluorophenyl)-N-[4-[N-(S)-[1-(methoxycarbonyl)-2-methylpropyl]amino]1-methyl-4-oxobutyl]benzenesulfonamide], with 100 to 500 nM.
On the same count and under the same terms, then `COC(=O)[C@H](CC(C)C)NC(=O)CC[C@@H](C)N(c1cc(Cl)ccc1F)S(=O)(=O)c1ccc(Cl)cc1` [Example 538], with 100 to 500 nM.
